Data published in patent publication US5627215A, “Unsaturate amino compounds for use as anticancer and antiprotozoic agent” (Ciba-Geigy Corporation, priority 1993, dated 1997).
Where a name gives a salt, the structure may show the parent alone. Read-outs that look alike come from different tables or passages of the source.

Experiments:
[1] = tested on: mouse ascites L1210 leukaemia cells; test: Levels of putrescine, spermidine and spermine (polyamine pools) in mouse ascites L1210 leukemia cells (method of Porter et al., HPLC); assay type: cell-based; conditions: 48 h incubation; for activity at 10 µM: test compound 10 μM; for activity at 5 µM: test compound 5 μM
Experimental: Mouse ascites L1210 leukaemia cells are cultured (at 37° C.) in RPMI-1640 medium (which contains, per litre, 100 mg of Ca(NO3)2,400 mg of KCl, 100 mg of MgSO4.7H2 O, 6000 mg of NaCl, 2000 mg of NaHCO3, 801 mg of Na2 HPO4, 242 mg of L-Arg.HCl, 50 mg of L-Ash, 20 mg of L-Asp, 50 mg of L-Cys, 300 mg of L-Gln, 20 mg of L-Glu, 10 mg of Gly, 18.2 mg of L-His.HCl.H2 O, 20 mg of L-hydroxyproline, 50 mg of L-Leu, 40 mg of L-Lys.HCl, 15 mg of L-Met, 15 mg of L-Phe, 20 mg of L-Pro, 30 mg of L-Ser, 20 mg of L-Thr, 5 mg of L-Trp, 20 mg of L-Tyr, 20 mg of L-Vat, 1 mg of […], 0.2 mg of biotin, 3 mg of choline chloride, 1 mg of folic acid, 35 mg of i-inositol, 1 mg of nicotinamide, 0.25 mg of pantothenoic acid calcium salt, 1 mg of pyridoxine.HCl, 0.2 mg of riboflavin, 1 mg of thiamine. HCl, 0.005 mg of vitamin B12, 2000 mg of glucose, 1 mg of glutathione, and 5 mg of phenol red), which also contains 2 % 4-(2-hydroxyethyl)-1-piperazineethanesulfonic acid/3-(N-morpholino)propanesulfonic acid, 1 mM aminoguanidine and 10% NuSerum (Collaborative Research Inc., Lexington, Mass.). The cells are cultured under a humid 5% carbon dioxide atmosphere at 37° C. either in glass culture tubes (2 ml) or in 25 or 75 cm^2 tissue culture bottles in a total volume of 15 or 50 ml, respectively. The cultures are treated with the compounds of formula I or with 0.1 mM spermidine (controls: without corresponding compounds) during the logarithmic growth phase (0.5 to 1×10^5 cells/ml). The number of cells is measured by electronic particle counting (Model ZF Coulter Counter, Coulter Electronics, Hialeah, Fla.) and confirmed from time to time by haemocytometer measurements. The viability of the cells is measured by trypan blue exclusion measurement (0.5% in unbuffered 0.9% sodium chloride solution ).
For polyamine determination, the cell samples are washed twice in cold PBS (="Phosphate Buffered Saline"--contains per litre 8000 mg of NaCl, 200 mg of KCl, 1150 mg of Na2 HPO4.2H2 O, 200 mg of KH2 PO4, 100 mg of MgCl2.H2 O, 200 mg of MgSO4.H2 O and CaCl2; pH 7.2), and an aliquot of 10^7 cells is removed for polyamine determination. The cells are formed into a pellet, and the PBS supernatant is removed carefully using a cotton wool swab. The pellet containing the cells is then maintained together with 0.5 ml of 0.6M perchloric acid for 30 minutes at 4° C. and is then centrifuged for 3 minutes at 12,000 g using a microcentrifuge. The supernatant is frozen at -20° C. until the HPLC analysis. For that purpose, the polyamines in a 50 μl sample of the perchloric acid extract are separated over an HPLC system using a glass "Microbore Column" having a diameter of 2.8 mm, which is packed to a height of 2 cm with TLC-4A-cationexchange resin (Durrum Chemical Corp., Palo Alto, Calif.). The column temperature is maintained at 65° C. by means of a water bath with circulating water. The column is eluted at a flow rate of 16 ml/h with an initial column pressure of 34.45 bar, which decreases as the ionic strength of the elution buffer increases. Buffer 1 (which contains 0.2M boric acid, 0.5M NaCl, 0.03% Brij 35 (polyoxyethylene monolauryl ether, the number of ethyleneoxy radicals is approximately 23; Pierce Chemical Co., Rockford, Ill.) and 0.0001% octanoic acid, pH adjusted to 6.0 with saturated KOH) is flushed through the column for 4 minutes. Buffer 2 (which contains 0.2M boric acid, 2.15M NaCl, 0.03% Brij 35 and 0.0001% octanoic acid, pH adjusted as above) is pumped through for 6 minutes. Buffer 3 (which contains 0.2M boric acid, 2.9M NaCl and 0.0001% octanoic acid (pH adjusted as above)) is likewise applied for 6 minutes. The column is re-equilibrated for 10 minutes with buffer 1, before the next sample is introduced. The column eluate is derivatised with 0.05% o-phthalaldehyde (Durrum Chemical Corp.) in 0.4M borate buffer (pH 10.4)/1 mM 2-mercaptoethanol/0.09% Brij 35. The flow rate for o-phthalaldehyde is 8 ml/h. […]

[2] = tested on: human T24 bladder carcinoma cells; test: Inhibition of growth of human T24 bladder carcinoma cells (methylene blue staining, 5 days); assay type: cell-based; conditions: 120 h, Eagle's minimal essential medium, 5 days incubation
Experimental: The carcinoma cells (1000-1500) are transferred to 96-well microlitre plates and are incubated overnight under the said conditions. The test compound is added in serial dilutions on day 1. The plates are incubated under the said conditions for 5 days. During that period, control cultures undergo at least 4 cell divisions. After incubation, the cells are fixed with 3.3% (weight/volume=w/v) aqueous glutaraldehyde solution, washed with water and stained with 0.05% (w/v) aqueous methylene blue solution. After washing, the dye is eluted with 3% (w/v) aqueous hydrochloric acid. The optical density (OD) per well, which is directly proportional to the number of cells, is then measured by means of a photometer (Titertek multiskan) at 665 nm. The IC50 values are calculated by means of a computer system using the formula [formula] The IC50 value is defined as the concentration of active ingredient at which the number of cells per well at the end of the incubation period is only 50% of the number of cells in the control cultures. Inhibition of growth of human T24 bladder carcinoma cells: Using the method for inhibition of growth of human T24 bladder carcinoma cells om Eagle's minimal essential medium (see above), the following test results are obtained (given as IC50 =concentration of the active ingredient at which the number of cells per well at the end of the incubation period is only 50% of the number of cells in the control cultures): […]

[3] = read-out: level of putrescine (PU), % of the respective control
[4] = read-out: level of spermidine (SPD), % of the respective control
[5] = read-out: level of spermine (SPM), % of the respective control

IC50 [2]	SMILES	activity at 10 µM [1, 3]	activity at 10 µM [1, 4]	activity at 10 µM [1, 5]	activity at 5 µM [1, 3]	activity at 5 µM [1, 4]	activity at 5 µM [1, 5]
0.64 µM	CCCNCCCNC/C=C/CNCCCNCCC [Example 1, (E)-1,14Di-propyl-1,5,10,14-tetraazatetradec-7-ene tetrahydrochloride]	9.4%	12%	67%			
0.6 µM	C=CCNCCCNC/C=C/CNCCCNCC=C [Example 2, (E)-1,14-Di-allyl-1,5,10,14-tetraazatetradec-7-ene tetrahydrochloride]	16%	3.1%	36%			
8.2 µM	CCCCNCCCNC/C=C/CNCCCNCCCC [Example 3, (E)-1,14-Di-butyl-1,5,10,14-tetraazatetradec-7-ene tetrahydrochloride]						
	CCNCCCNC/C=C/CNCCCNCC [Example 5, (E)-1,14-Di-ethyl-1,5,10,14-tetraazatetradec-7-ene tetrahydrochloride]				4.1%	2.1%	30%
3 µM	C=CCNCCCNC/C=C/CNCCCNCC [Example 6, (E)-1-Ally-14-ethyl-1,5,10,14-tetraazatetradec-7-ene tetrahydrochloride]	4.1%	2.1%	12%			
0.55 µM	CCCCNCCCNC/C=C/CNCCCNCC [Example 8, (E)-1-Butyl-14-ethyl-1,5,10,14-tetraazatetradec-7-ene tetrahydrochloride]	4.8%	0.2%	4%			
1.1 µM	CCCNCCCNC/C=C/CNCCCNCC [Example 9, (E)-1-Ethyl-14-propyl-1,5,10,14-tetraazatetradec-7-ene tetrahydrochloride]	6.9%	2%	19%			
2.14 µM	C=CCNCCCNC/C=C/CNCCCNCCC [Example 13, (E)-1-Allyl-14-propyl-1,5,10,14-tetraazatetradec-7-ene tetrahydrochloride]	0%	1.3%	25%			
0.92 µM	C(=C\CNCCCNCC1CC1)/CNCCCNCC1CC1 [Example 16, (E)-1,14-Di-cyclopropylmethyl-1,5,10,14-tetraazatetradec-7-ene tetrahydrochloride]	12%	24%	62%			
